Results on 35 compounds are retold here after patent publication US20250025459A1, “COVID-19 TREATMENT MEDICINE CHARACTERIZED BY COMBINING 3CL PROTEASE INHIBITOR AND COVID-19 TREATMENT DRUG” (priority 2021, published 2025).

Assay [1] deals with SARS-CoV-2 hCoV-19/Japan/TY7-501/2021. The assay is described as follows: Combination effect confirmation test, VeroE6/TMPRSS2 cells, strain TY7-501. Type of assay: cell-based.
Assay [2] relates to SARS-CoV-2 hCoV-19/Japan/TY11-927-P1/2021. The assay is described as follows: Combination effect confirmation test, VeroE6/TMPRSS2 cells, strain TY11-927-P1. Type of assay: cell-based. The note with it: for EC50: Severe acute respiratory syndrome coronavirus 2, VeroE6/TMPRSS2, 72 h, single agent; for EC50 of single agent: VeroE6/TMPRSS2, 3 days.
Assay [3] relates to SARS-CoV-2 hCoV-19/Japan/TY/WK-521/2020. As to the kind of experiment: Combination effect confirmation test, VeroE6/TMPRSS2 cells, strain WK-521. Format: cell-based. The note with it: for EC50 of single agent: VeroE6/TMPRSS2, 3 days.
The subject of a further assay is SARS-CoV-2. The assay is described as follows: microbe, parasite or virus in culture. Type of assay: cell-based. The note with it: Severe acute respiratory syndrome coronavirus 2, 72 h; VeroE6/TMPRSS2 cells, 100 TCID50/well, 3 days; class symbols.
For another assay, the target named is SARS-CoV-2 3CL Protease (Severe acute respiratory syndrome coronavirus 2 (2019-nCoV) (SARS-CoV-2), UniProt P0DTD1). As to the kind of experiment: biochemical. Format: biochemical.
[4] abbreviates: Severe acute respiratory syndrome coronavirus 2, VeroE6/TMPRSS2, 72 h, single agent, hCoV-19/Japan/TY7-501/2021, […].
Where [5] appears, read: Severe acute respiratory syndrome coronavirus 2, 72 h, single agent, hCoV-19/Japan/TY/WK-521/2020, VeroE6/TMPRSS2, 1000 TCID50/well, 3 days.
Where [6] appears, read: read-out: 50% SARS-CoV-2 3CL protease inhibitory concentration (IC50).
Setting [7] is: recombinant enzyme, RapidFire MS, class symbols, read-out: IC50.
Where [8] appears, read: single agent, hCoV-19/Japan/TY/WK-521/2020.

Read-outs that look alike come from different tables or passages of the source.

What is called EC50 is the concentration that produces a half-maximal response.

Regarding `Cn1cnc(Cn2c(=O)[nH]/c(=N\c3cc4cn(C)nc4cc3Cl)n(Cc3cc(F)c(F)cc3F)c2=O)n1`, the EC50 was determined as 0.5 µM in assay [1] (setting [4]), 0.41 µM in assay [2] and 0.37 µM in assay [3] (setting [5]).
`CN(C)C(=O)COC(=O)Cc1ccc(OC(=O)c2ccc(NC(=N)N)cc2)cc1` [Camostatmesylate, reference compound]: the EC50 in assay [3] (setting [5]) was 1.3 µM.
Take `Cc1cncc(-n2c(=O)nc(Nc3cc4cn(C)nc4cc3F)n(Cc3cc(F)c(F)c(F)c3)c2=O)c1` [Compound I-002]: in the assay with SARS-CoV-2, the half-maximal effective concentration (EC50) is under 1 µM.
Turning to `Cc1cncc(-n2c(=O)nc(Nc3cc4cn(C)nc4cc3Cl)n(Cc3cc(F)c(F)c(F)c3)c2=O)c1` [Compound I-003], the IC50 at SARS-CoV-2 3CL Protease (setting [6]) is 0.014 µM. Besides, the EC50 in assay [3] (setting [5]) stood at 0.177 µM.
In the assay on SARS-CoV-2, `Cc1cncc(-n2c(=O)nc(Nc3cc4cn(C)nc4cc3C)n(Cc3cc(F)c(F)c(F)c3)c2=O)c1` [Compound I-004] displayed an EC50 of 1 to 10 µM.
Same read-out and setting: to `N#Cc1cc(Cn2c(Nc3ccc4nn(CC(F)F)cc4c3)nc(=O)n(-c3cncc4ccccc34)c2=O)ccc1F` [Compound I-009] belongs under 1 µM; to `Cc1cncc(-n2c(=O)nc(Nc3ccc4nn(CC(F)F)cc4c3)n(Cc3ccc(F)c(C#N)c3)c2=O)c1` [Compound I-011], under 1 µM.
For `Cc1cncc(-n2c(=O)nc(Nc3cc4cn(C)nc4cc3Cl)n(Cc3cc(F)c(F)cc3F)c2=O)c1` [Compound I-012], on SARS-CoV-2 3CL Protease (setting [6]), the IC50 is 0.0091 µM.
The compound `Cc1cc2nn(C)cc2cc1Nc1nc(=O)n(-c2cncc3ccccc23)c(=O)n1Cc1cc(F)c(F)c(F)c1` [Compound I-013] returned an EC50 with SARS-CoV-2 of 1 to 10 µM. Also, the IC50 on SARS-CoV-2 3CL Protease (setting [7]) was under 0.1 µM.
With `Cn1cc2cc(Nc3nc(=O)n(-c4cncc5ccccc45)c(=O)n3Cc3cc(F)c(F)c(F)c3)c(Cl)cc2n1` [Compound I-014], the EC50 in the assay on SARS-CoV-2 is under 1 µM.
`Cn1cc2cc(Nc3nc(=O)n(-c4cncc5ccccc45)c(=O)n3Cc3ccc(F)c(C#N)c3)c(Cl)cc2n1` [Compound I-015]: in the assay on SARS-CoV-2, the EC50 is under 1 µM.
The same measure, in the same setting: the same measure for `Cn1cc2cc(Nc3nc(=O)n(-c4cncc5ccccc45)c(=O)n3Cc3cc(F)c(F)c(F)c3)ccc2n1` [Compound I-016]: under 1 µM; for `Cc1cncc(-n2c(=O)nc(Nc3cc4cn(C)nc4cc3F)n(Cc3ccc(F)c(C#N)c3)c2=O)c1` [Compound I-018]: under 1 µM; for `Cc1cncc(-n2c(=O)nc(Nc3cc4cn(C)nc4cc3C)n(Cc3ccc(F)c(C#N)c3)c2=O)c1` [Compound I-019]: under 1 µM.
On the same count and under the same terms, to `O=c1nc(Nc2cc3cn(CCN4CCOCC4)nc3cc2Cl)n(Cc2cc(F)c(F)c(F)c2)c(=O)n1-c1cncc2ccccc12` [Compound I-020] belongs 1 to 10 µM.
Same read-out and setting: the same measure for `Cn1cnc(Cn2c(=O)nc(Nc3cc4cn(C)nc4cc3Cl)n(Cc3cc(F)c(F)c(F)c3)c2=O)n1` [Compound I-021]: under 1 µM; for `Cc1nc2cc(Cl)c(Nc3nc(=O)n(Cc4ncn(C)n4)c(=O)n3Cc3cc(F)c(F)c(F)c3)cc2n1C` [Compound I-022]: 1 to 10 µM; for `N#Cc1cc(Cn2c(Nc3cc4cn(C(F)F)nc4cc3Cl)nc(=O)n(-c3cncc4ccccc34)c2=O)ccc1F` [Compound I-024]: under 1 µM.
As to `Cn1cc2cc(Nc3nc(=O)n(-c4cncc5ccccc45)c(=O)n3Cc3ccc(F)c(C#N)c3)c(F)cc2n1` [Compound I-025], the concentration for a half-maximal effect (EC50) with SARS-CoV-2 was under 1 µM.
In the assay with SARS-CoV-2, `Cc1cncc(-n2c(=O)nc(Nc3cc4cn(C(F)F)nc4cc3Cl)n(Cc3ccc(F)c(C#N)c3)c2=O)c1` [Compound I-026] returned an EC50 of under 1 µM.
In the assay with SARS-CoV-2, `Cc1cc2nn(C)cc2cc1Nc1nc(=O)n(-c2cncc3ccccc23)c(=O)n1Cc1ccc(F)c(C#N)c1` [Compound I-027] gave an EC50 of under 1 µM.
In the assay with SARS-CoV-2, `Cn1cnc(Cn2c(=O)nc(Nc3cc4cn(CCO)nc4cc3Cl)n(Cc3cc(F)c(F)c(F)c3)c2=O)n1` [Compound I-028] gave an EC50 of 1 to 10 µM.
Still for that read-out and setting: the same measure for `Cn1cnc(Cn2c(=O)nc(Nc3cc4cn(CC(F)F)nc4cc3Cl)n(Cc3cc(F)c(F)c(F)c3)c2=O)n1` [Compound I-029]: under 1 µM; for `Cn1cnc(Cn2c(=O)nc(Nc3cc4cn(C(F)F)nc4cc3Cl)n(Cc3cc(F)c(F)c(F)c3)c2=O)n1` [Compound I-030]: 1 to 10 µM.
As to `N#Cc1cc(Cn2c(Nc3cc4cn(CCO)nc4cc3Cl)nc(=O)n(-c3cncc4ccccc34)c2=O)ccc1F` [Compound I-031], the EC50 in the assay with SARS-CoV-2 lay in the range of 1 to 10 µM. Besides, the IC50 on SARS-CoV-2 3CL Protease (setting [7]) is under 0.1 µM.
In turn, `Cc1nc2cc(Cl)c(Nc3nc(=O)n(-c4cncc5ccccc45)c(=O)n3Cc3cc(F)c(F)c(F)c3)cc2n1C` [Compound I-032] yielded an EC50 with SARS-CoV-2 of 1 to 10 µM. For the same compound, the IC50 at SARS-CoV-2 3CL Protease (setting [7]) was under 0.1 µM.
Regarding `CC(=O)NCCn1cc2cc(Nc3nc(=O)n(-c4cncc5ccccc45)c(=O)n3Cc3cc(F)c(F)c(F)c3)c(Cl)cc2n1` [Compound I-033], the EC50 with SARS-CoV-2 fell in the range of 1 to 10 µM.
Take `O=c1nc(Nc2ccc3nn(CC(F)F)cc3c2)n(Cc2cc(F)c(F)c(F)c2)c(=O)n1-c1cncc2ccccc12` [Compound I-034]: in the assay on SARS-CoV-2, the EC50 is under 1 µM.
For the compound `O=c1nc(NO)ccn1[C@@H]1O[C@H](CO)[C@@H](O)[C@H]1O` [EIDD-1931, reference compound], the values for the EC50 in assay [1] (read-out: EC50 of single agent) and in assay [3] (read-out: EC50 of single agent) were 1.5 µM and 0.69 µM, respectively.
Regarding `CC(C)(C)[C@H](NC(=O)C(F)(F)F)C(=O)N1C[C@H]2[C@@H]([C@H]1C(=O)N[C@H](C#N)C[C@@H]1CCNC1=O)C2(C)C` [PF-07321332, reference compound], in assay [3] (setting [5]), the EC50 amounted to 7.1 µM.
Regarding `CCC(CC)COC(=O)[C@H](C)N[P@](=O)(OC[C@H]1O[C@@](C#N)(c2ccc3c(N)ncnn23)[C@H](O)[C@@H]1O)Oc1ccccc1` [Remdesivir, reference compound], the EC50 stood at 2.3 µM in assay [1] (setting [4]); 2 µM in assay [2]; 2.5 µM in assay [3] (Severe acute respiratory syndrome coronavirus 2, VeroE6/TMPRSS2, 72 h, single agent, hCoV-19/Japan/TY/WK-521/2020, […]).
“Bebtelovimab: anti-SARS-CoV-2 monoclonal antibody”: in assay [2], the “EC50 of single agent” value is 0.0231(μg/mL).
On to “Casirivimab: anti-SARS-CoV-2 monoclonal antibody”, for which, in assay [3] (setting [8]), the “EC50 of single agent” value was 0.077 [μg/mL].
The same measure, in the same setting: the same measure for “Imdevimab: anti-SARS-CoV-2 monoclonal antibody”: 0.047 [μg/mL].
With “Sotrovimab: anti-SARS-CoV-2 monoclonal antibody”, the “EC50 of single agent” value in assay [2] is 1.06(μg/mL).
